In paper PMC6527550, “Discovery of processive catalysis by an exo-hydrolase with a pocket-shaped active site” (Nature Communications, 2019):
pKd, pKi: −log10 of the molar value. Read-outs that look alike come from different tables or passages of the source.

How the values were obtained:
[1] = molecular target: native HvExoI (Hordeum vulgare, UniProt Q9XEI3); assay: Inhibition kinetics (Ki) with 4-nitrophenyl β-D-glucopyranoside substrate; assay type: biochemical, barley (Hordeum vulgare); conditions: for ΔG: calculated from Ki; for ΔG / pKi: native HvExoI; for pKi: inhibition kinetics, 4-nitrophenyl β-D-glucopyranoside substrate, 30 °C, pH 5.25
native HvExoI, sequence (Q9XEI3 entry or part of it): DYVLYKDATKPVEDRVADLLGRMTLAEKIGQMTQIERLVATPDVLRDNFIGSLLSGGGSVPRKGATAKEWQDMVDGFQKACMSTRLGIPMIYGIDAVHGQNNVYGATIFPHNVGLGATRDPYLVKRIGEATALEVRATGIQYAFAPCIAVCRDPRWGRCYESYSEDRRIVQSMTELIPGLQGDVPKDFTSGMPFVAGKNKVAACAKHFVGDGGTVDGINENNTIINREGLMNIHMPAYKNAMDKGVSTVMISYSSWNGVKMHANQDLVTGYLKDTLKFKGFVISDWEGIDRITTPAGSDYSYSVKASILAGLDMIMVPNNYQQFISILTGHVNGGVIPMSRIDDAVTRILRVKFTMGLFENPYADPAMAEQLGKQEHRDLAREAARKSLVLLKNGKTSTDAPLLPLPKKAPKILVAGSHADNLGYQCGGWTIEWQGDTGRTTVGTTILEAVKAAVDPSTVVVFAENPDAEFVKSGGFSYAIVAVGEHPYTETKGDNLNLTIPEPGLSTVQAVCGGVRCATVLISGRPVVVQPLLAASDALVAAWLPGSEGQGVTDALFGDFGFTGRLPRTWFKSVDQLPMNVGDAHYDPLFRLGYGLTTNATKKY
Description: Ki values of deoxy-glucose and alkyl β-D-glucoside derivatives, and G2SG-OMe with native HvExoI were derived from hydrolytic rates. Enzyme inactivation was monitored at 30 °C by incubating […] of the enzyme in 100 mM sodium acetate buffer, pH 5.25, containing 0.8–6.6 mM 4NPGlc as a substrate, 160 μg/ml BSA, and 3dGlc, 4dGlc, octyl-O-Glc, octyl-S-Glc and G2SG-OMe. Each inhibitor was tested at six concentrations at 0.4–3 times the Ki values in duplicate. We used the v = Vmax S / [KM × (1 + I/Ki) + S] equation to calculate Ki constant; Ki is defined as a dissociation constant of the enzyme-inhibitor complex. The enzyme activity was monitored at 410 nm and Dixon plots were used to determine Ki under the pseudo-first-order rate limiting conditions by a non-linear regression analysis, as described previously.

[2] = molecular target: recombinant HvExoI (Hordeum vulgare, UniProt Q9XEI3); assay: Steady-state affinity binding by Surface Plasmon Resonance; design: species or system barley (Hordeum vulgare); conditions: for ΔG: calculated from KD
recombinant HvExoI, sequence (Q9XEI3 entry or part of it): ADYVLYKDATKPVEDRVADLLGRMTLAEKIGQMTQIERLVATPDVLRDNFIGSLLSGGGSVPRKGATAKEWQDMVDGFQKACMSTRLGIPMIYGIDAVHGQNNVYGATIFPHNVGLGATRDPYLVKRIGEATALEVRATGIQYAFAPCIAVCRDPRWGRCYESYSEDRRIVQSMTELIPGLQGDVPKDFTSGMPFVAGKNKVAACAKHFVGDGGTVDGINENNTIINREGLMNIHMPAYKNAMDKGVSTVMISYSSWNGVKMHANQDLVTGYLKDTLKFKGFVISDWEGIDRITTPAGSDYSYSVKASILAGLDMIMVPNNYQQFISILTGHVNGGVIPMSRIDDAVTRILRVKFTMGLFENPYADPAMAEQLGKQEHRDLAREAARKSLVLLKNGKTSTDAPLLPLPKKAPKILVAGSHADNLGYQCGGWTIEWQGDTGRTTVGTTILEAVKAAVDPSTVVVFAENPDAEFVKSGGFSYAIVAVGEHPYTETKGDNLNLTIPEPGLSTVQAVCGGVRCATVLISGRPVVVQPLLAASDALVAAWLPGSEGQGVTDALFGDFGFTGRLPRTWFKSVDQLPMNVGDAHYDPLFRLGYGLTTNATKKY
Description: Interaction between recombinant HvExoI and analytes Glc (molecular mass 180.2 g), G6SG-OMe (372.4 g) and PEG (n = 5–10); (380–420 g) were performed using Surface Plasmon Resonance (SPR) at 25 °C using the Biacore X100 V2.0.1 instrument (GE Healthcare, USA) equipped with the plus package. Purified recombinant HvExoI at 99% homogeneity (detected by SDS-PAGE) was covalently attached to a CM5 chip (GE Healthcare) in 10 mM sodium acetate buffer, pH 5.0. The carboxymethyl groups present on the dextran layer of the CM5 chip were activated with 1-ethyl-3-(3-dimethylaminopropyl) carbodiimide hydrochloride (EDC) and N-hydroxysuccinimide (NHS) (GE Healthcare). Any unoccupied reactive sites were blocked by a 7 min injection of 1 M ethanolamine hydrochloride-NaOH, pH 8.5. A ligand density of ~15.000 RU of recombinant HvExoI was achieved. Due to the fast rate constants of interactions, it was impossible to obtain individual rate constants ka and kd. […] For each interaction serial dilutions of analytes covering the 10 · KD − 0.1 · KD concentration ranges were prepared in 10 mM HEPES-NaOH buffer, pH 7.4 with 150 mM NaCl. Samples were injected onto the surface of a chip at a rate of 30 µl/min for 90 s, after which the formed enzyme/analyte complexes could dissociate for 90 s. As all analytes dissociated completely from the surface of the recombinant enzyme immobilised on a chip, no regeneration steps were needed. All responses were double referenced using a blank-immobilised reference surface (NHS + EDC-activated/deactivated) and a series of blank injections conducted to account for the system and injection artefacts. For each analyte at least one concentration was injected in duplicate. Triplicate experiments were performed, and the double-referenced data were globally fitted using a 1:1 equilibrium interaction model and the Biacore T200 v2.0 analysis software (GE Healthcare). Steady-state affinity binding constants KD (Supplementary Fig. 3) were calculated 30 s after the onset of injections using a 5 s window in an average response in the fit.

Structure (SMILES) | ΔG [1] [kcal/mol] | pKi [1] | pKd ([2]; steady-state affinity, Surface Plasmon Resonance, recombinant HvExoI, 25 °C, read-out: KD) | fold weaker binding than G6SG-OMe ([1]; Ki of G2SG-OMe compared with KD of G6SG-OMe) | ΔG ([2]; recombinant HvExoI) [kcal/mol] | pKd [2]
CO[C@@H]1O[C@H](CS[C@@H]2O[C@H](CO)[C@@H](O)[C@H](O)[C@H]2O)[C@@H](O)[C@H](O)[C@H]1O [G6SG-OMe, methyl 6-S-β-D-glucopyranosyl-6-thio-β-D-glucopyranoside] | – | – | 5.10 | – | -6.96 | –
O=C[C@H](O)[C@@H](O)C[C@H](O)CO [4dGlc, 4-deoxy-glucose] | -2.82 | 2.03 | – | – | – | –
O=C[C@H](O)C[C@H](O)[C@H](O)CO [3dGlc, 3-deoxy-glucose] | -2.8 | 2.01 | – | – | – | –
OC[C@H]1OC(O)[C@H](O)[C@@H](O)[C@@H]1O (stereo partly drawn) [Glc] | – | – | – | – | -5.19 | 3.80

Further molecules by rising pKi [1], results first:

ΔG [1] [kcal/mol] | pKi [1] | pKd ([2]; steady-state affinity, Surface Plasmon Resonance, recombinant HvExoI, 25 °C, read-out: KD) | fold weaker binding than G6SG-OMe ([1]; Ki of G2SG-OMe compared with KD of G6SG-OMe) | Structure (SMILES) | ΔG ([2]; recombinant HvExoI) [kcal/mol] | pKd [2]
-3.61 | 2.59 | – | about 320 fold | CO[C@@H]1O[C@H](CO)[C@@H](O)[C@H](O)[C@H]1S[C@@H]1O[C@H](CO)[C@@H](O)[C@H](O)[C@H]1O [G2SG-OMe, methyl 2-S-β-D-glucopyranosyl-2-thio-β-D-glucopyranoside] | – | –
-4.11 | 2.96 | – | – | CCCCCCCCS[C@@H]1O[C@H](CO)[C@@H](O)[C@H](O)[C@H]1O [Octyl-S-Glc, n-octyl 1-thio-β-D-glucopyranoside] | – | –
-5.4 | 3.89 | – | – | CCCCCCCCO[C@@H]1O[C@H](CO)[C@@H](O)[C@H](O)[C@H]1O [Octyl-O-Glc, n-octyl β-D-glucopyranoside] | – | –
